Assay type in all cases: cell-based
For assay [1], the target named is T1, CXCR4 (Homo sapiens, UniProt P61073). The assay is described as follows: Chemotaxis assay using SUP B-15 cells. The settings on record: SUP-B15, Table 18, i1 loop, SUP B-15 cells, drug conc 1.0 uM. More on the design: A similar procedure was followed for chemotaxis using SUP B-15 cells; endogenous in cells; host or cells: SUP B-15 cells. The text has this: Chemotaxis assays were utilized to determine the effect of compound on the directed migration of cells in response to chemokine. Cells that express a receptor of interest were placed in the upper chamber of a Transwell chemotaxis plate (Corning) and allowed to migrate through a polycarbonate membrane to a lower chamber containing the appropriate receptor-specific ligand. To test for antagonist or potentiating activity, cells were mixed with the desired concentration of compound prior to addition to the upper chamber. Conversely, agonist activity was determined by adding compound in the bottom chamber only without endogenous chemokine. The effect of compound is quantified by several parameters, including the extent of maximum response, the shift of agonist dose-response curves, and the area under the curve.
To measure the CXCR4-dependent migration of cells, the appropriate concentration of CXCL12 (SDF1a) or test compound was diluted in phenol red-free RMPI-1640/20 mM HEPES/0.5% BSA buffer and placed in the bottom chamber of a transwell apparatus. CCRF-CEM cells, a human T-cell ALL line that endogenously expresses CXCR4, were washed twice in buffer and resuspended at 133,000 cells/ml. A 75 μl sample of this suspension is mixed with the test compound of interest and placed in the upper chamber of a 5-micron transwell apparatus.
To initiate cell migration, the assembled transwell plate was placed in a 37° C., […] incubator for a specified time interval, typically between 30 and 120 minutes. After incubation, the unit was disassembled and the lower chamber placed at −80° C. overnight to facilitate lysis of cells. To quantify migrated cells, plates were thawed at 37° C. in a humidified chamber, and then a sample volume was removed from each well and mixed with an equal volume of CyQuant (Invitrogen) working solution in opaque plates. The fluorescence intensity of each well represents the DNA content and is directly proportional to cell number. Each sample was typically run in duplicate or triplicate and each plate included two separate negative controls. The plate background control, which included no cells in the upper chamber, was subtracted from all values. The negative control had no agonist added in the lower chamber, and served to establish the baseline for random migration. A similar procedure was followed for chemotaxis using SUP B-15 cells.

In assay [2] the target is T1, CXCR4. The assay is described as follows: Chemotaxis assay, effect on SDF1-a (CXCL12) induced migration of CCRF-CEM cells. The arrangement: a human T-cell ALL line that endogenously expresses CXCR4; endogenous in cells; host or cells: CCRF-CEM (human T-cell ALL line). Conditions: CCRF-CEM, Table 18, i1 loop, CEM cells; for activity at 0.03 µM: drug conc 0.03 uM; for activity at 0.1 µM: drug conc 0.1 uM; for activity at 0.3 µM: drug conc 0.3 uM; for activity at 1 µM: drug conc 1.0 uM; for activity at 3 µM: drug conc 3.0 uM.
Method: To initiate cell migration, the assembled transwell plate was placed in a 37° C., 0.5% CO2 incubator for a specified time interval, typically between 30 and 120 minutes. After incubation, the unit was disassembled and the lower chamber placed at −80° C. overnight to facilitate lysis of cells. To quantify migrated cells, plates were thawed at 37° C. in a humidified chamber, and then a sample volume was removed from each well and mixed with an equal volume of CyQuant (Invitrogen) working solution in opaque plates. The fluorescence intensity of each well represents the DNA content and is directly proportional to cell number. […] The plate background control, which included no cells in the upper chamber, was subtracted from all values.

The target in assay [3] is T1, CXCR4. Description: Calcium flux assay in CCRF-CEM cells (SDF-1α activation of CXCR4; intrinsic agonist activity). Conditions: SDF-1α activation of CXCR4, Calcium-4 dye, read-out: IC50 (nM), CXCR4 i1 loop compound Calcium Flux Data. More on the design: a human T-cell ALL line that endogenously expresses CXCR4; endogenous in cells; host or cells: CCRF-CEM (human T-cell ALL line). The text has this: Calcium Flux Assay is one of the most popular cell-based GPCR functional assays. It most often uses calcium sensing fluorescent dyes such as fura2 AM, fluo-4 and Calcium-4 to measure changes in intracellular calcium concentration. It is used mainly to detect GPCR signaling via Gaq subunit. Activation of these Gq-coupled GPCRs leads to activation of phospholipase C, which subsequently leads to increase in inositol phosphate production. IP3 receptors on endoplasmic reticulum sense the change then release calcium into cytoplasm. Intracellular calcium binding to the fluorescent dyes can be detected by instruments that quantify fluorescent intensities, such as FLIPR Tetra, Flexstation (MDS) and FDSS (Hamamatsu). In additional to assess Gq-couple receptor signaling, calcium flux assay can also be used to study Gs and Gi couple receptors by co-expressing CNG (cyclic nucleotide gated calcium channel) or chimeric G-proteins (Gqi5, Gsi5 for example). Activation of some Gi-coupled receptors can also be detected by calcium flux assay via Gβγmediated phospholipase C activation.
The calcium flux assay was used to assess SDF-1α activation of CXCR4 in CCRF-CEM cells (human T lymphoblasts from acute lymphoblastic leukemia). CCRF-CEM cells were seeded into 96-well black plates with clear bottom at 200K/well in RPMI 1640 media with 20 mM HEPES containing 0.2% BSA. After dye loading by incubating with Calcium-4 dye at 37° C. for 1 hour, cell plates were read at 37° C. using the Flexstation 3 workstation. The addition of test compounds or reference antagonists was accomplished either by manual pipetting or by liquid handling using the Flexstation. The latter allows the assessment of intrinsic agonist activity of the test compounds by measuring initial changes in fluorescent intensity. After incubation of 24 minutes at 37° C., SDF-1α was added and receptor activation was assessed by measuring changes in fluorescent intensity using the Flexstation.
In general terms: Calcium flux is commonly read through the fluorescence of an indicator in the cells.

SMILES strings stand for the structures. Read-outs that look alike come from different tables or passages of the source. Square brackets hold non-standard residues; d marks the D form. Peptide text beside a SMILES is read from it. * marks the point of attachment. ξ: configuration not given here. Palmitoyl = CCCCCCCCCCCCCCCC(=O)*; ξF = NC(Cc1ccccc1)C(=O)O

Broadly, the IC50 is the concentration that inhibits the measured activity by half.

T1 sequence (P61073 whole entry): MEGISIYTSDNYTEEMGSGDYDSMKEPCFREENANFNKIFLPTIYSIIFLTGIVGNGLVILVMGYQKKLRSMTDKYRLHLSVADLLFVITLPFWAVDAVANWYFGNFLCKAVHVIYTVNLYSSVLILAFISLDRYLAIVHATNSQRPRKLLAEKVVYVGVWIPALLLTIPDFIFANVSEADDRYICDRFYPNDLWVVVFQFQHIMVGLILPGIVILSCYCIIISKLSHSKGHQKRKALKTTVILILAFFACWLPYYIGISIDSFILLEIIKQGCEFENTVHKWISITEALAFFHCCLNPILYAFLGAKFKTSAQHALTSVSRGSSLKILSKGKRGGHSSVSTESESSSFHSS

As to `CCCCCCCCCCCCCCCC(=O)N[C@@H](CCCCN)C(=O)N[C@@H](CCCCN)C(=O)N[C@@H](CC(C)C)C(=O)N[C@@H](CCCNC(=N)N)C(=O)N[C@@H](CO)C(=O)N[C@@H](CCSC)C(=O)N[C@H](C(=O)N[C@@H](CC(=O)O)C(=O)N[C@@H](CCCCN)C(=O)N[C@@H](Cc1ccc(O)cc1)C(=O)N[C@@H](CCCNC(=N)N)C(=O)N[C@@H](CC(C)C)C(=O)N[C@@H](Cc1cnc[nH]1)C(N)=O)[C@@H](C)O` [Compound 43] (Palmitoyl-KKLRSMTDKYRLH-NH2), the activity at 1 µM on CXCR4 [1] (read-out: AUC (% of)) was found to be 70.8%. In addition, on CXCR4 [1] (read-out: Max (% of)), the activity at 1 µM stood at 55.8%. Further, on CXCR4 [2] (drug conc 0.01 uM, read-out: AUC (% of)), the activity at 0.01 µM was found to be 110%. Besides, on CXCR4 [2] (read-out: AUC (% of)), the activity at 0.03 µM was 110%, the activity at 0.1 µM turned out to be 108%, the activity at 0.3 µM worked out at 97.9% and the activity at 3 µM worked out at 79.4%. At CXCR4 [2] (read-out: Max (% of)), the activity at 0.03 µM stood at 92.7%, the activity at 0.1 µM was 93.6%, the activity at 0.3 µM was 84.5% and the activity at 1 µM came to 78.9%. Also, the activity at 3 µM on CXCR4 [2] (read-out: Max (% of)) was 76.3%.
`CCCCCCCCCCCCCCCC(=O)N[C@@H](CCSC)C(=O)NCC(=O)N[C@@H](Cc1ccc(O)cc1)C(=O)N[C@@H](CCC(N)=O)C(=O)N[C@H](CCCCN)C(=O)N[C@@H](CCCCN)C(=O)N[C@@H](CC(C)C)C(=O)N[C@@H](CCCNC(=N)N)C(=O)N[C@@H](CO)C(=O)N[C@@H](CCSC)C(=O)N[C@H](C(=O)N[C@@H](CC(=O)O)C(=O)N[C@@H](CCCCN)C(=O)N[C@@H](C)C(=O)N[C@@H](CCCNC(=N)N)C(=O)N[C@@H](CC(C)C)C(N)=O)[C@@H](C)O` [Compound 151] (Palmitoyl-MGYQ[dK]KLRSMTDKARL-NH2): the IC50 on CXCR4 [3] was > 10000 nM.
For `CCCCCCCCCCCCCCCC(=O)N[C@@H](CCCCN)C(=O)N[C@@H](CCCCN)C(=O)N[C@@H](CC(C)C)C(=O)N[C@@H](CCCNC(=N)N)C(=O)N[C@@H](CO)C(=O)N[C@@H](CCSC)C(=O)N[C@H](C(=O)N[C@@H](CC(=O)O)C(=O)N[C@@H](CCCCN)C(=O)N[C@@H](Cc1ccc(O)cc1)C(=O)N[C@@H](CCCNC(=N)N)C(=O)N[C@@H](CC(C)C)C(=O)N[C@@H](Cc1cnc[nH]1)C(=O)N[C@@H](CC(C)C)C(=O)N[C@@H](CO)C(=O)N[C@H](C(N)=O)C(C)C)[C@@H](C)O` [Compound 41] (Palmitoyl-KKLRSMTDKYRLHLSV-NH2), the activity at 1 µM was determined as 51.7% at CXCR4 [1] (read-out: AUC (% of)), 41.7% on CXCR4 [1] (read-out: Max (% of)), 66.7% on CXCR4 [2] (read-out: AUC (% of)) and 76.8% at CXCR4 [2] (read-out: Max (% of)).
Turning to `CCCCCCCCCCCCCCCC(=O)N[C@@H](CCSC)C(=O)NCC(=O)N[C@@H](Cc1ccc(O)cc1)C(=O)N[C@@H](CCC(N)=O)C(=O)N[C@H](CCCCN)C(=O)N[C@@H](CCCCN)C(=O)N[C@@H](CC(C)C)C(=O)N[C@@H](CCCNC(=N)N)C(=O)N[C@@H](CO)C(=O)N[C@@H](CCSC)C(=O)N[C@H](C(=O)N[C@@H](CC(=O)O)C(=O)N[C@@H](CCCCN)C(=O)NC(Cc1ccccc1)C(=O)N[C@@H](CCCNC(=N)N)C(=O)N[C@@H](C)C(N)=O)[C@@H](C)O` (stereo partly shown) [Compound 153] (Palmitoyl-MGYQ[dK]KLRSMTDK[ξF]RA-NH2), the IC50 at CXCR4 [3] was > 10000 nM.
As to `CCCCCCCCCCCCCCCC(=O)N[C@@H](CCSC)C(=O)NCC(=O)N[C@@H](Cc1ccc(O)cc1)C(=O)N[C@@H](CCC(N)=O)C(=O)N[C@@H](CCCCN)C(=O)N[C@@H](CCCCN)C(=O)N[C@@H](CC(C)C)C(=O)N[C@@H](CCCNC(=N)N)C(=O)N[C@@H](CO)C(=O)N[C@@H](CCSC)C(=O)N[C@H](C(=O)N[C@@H](CC(=O)O)C(=O)N[C@@H](CCCCN)C(=O)N[C@@H](Cc1ccc(O)cc1)C(N)=O)[C@@H](C)O` [Compound 37] (Palmitoyl-MGYQKKLRSMTDKY-NH2), the activity at 1 µM at CXCR4 [1] (read-out: AUC (% of)) came to 63.5%; at CXCR4 [1] (read-out: Max (% of)), 91.1%; on CXCR4 [2] (read-out: AUC (% of)), 92.3%; at CXCR4 [2] (read-out: Max (% of)) it was 97.8%.
As to `CCCCCCCCCCCCCCCC(=O)N[C@@H](CCSC)C(=O)NCC(=O)N[C@@H](Cc1ccc(O)cc1)C(=O)N[C@@H](CCC(N)=O)C(=O)N[C@@H](CCCCN)C(=O)N[C@@H](CCCCN)C(=O)N[C@@H](CC(C)C)C(=O)N[C@H](CCCNC(=N)N)C(=O)N[C@@H](CO)C(=O)N[C@@H](CCSC)C(=O)N[C@H](C(=O)N[C@@H](CC(=O)O)C(=O)N[C@@H](CCCCN)C(=O)N[C@@H](Cc1ccc(O)cc1)C(=O)N[C@@H](CCCNC(=N)N)C(=O)N[C@@H](CC(C)C)C(N)=O)[C@@H](C)O` [Compound 171] (Palmitoyl-MGYQKKL[dR]SMTDKYRL-NH2), on CXCR4 [3], the IC50 was determined as 72 nM.
`CCCCCCCCCCCCCCCC(=O)N[C@H](C(=O)N[C@@H](CCSC)C(=O)NCC(=O)N[C@@H](Cc1ccc(O)cc1)C(=O)N[C@@H](CCC(N)=O)C(=O)N[C@@H](CCCCN)C(=O)N[C@@H](CCCCN)C(=O)N[C@@H](CC(C)C)C(=O)N[C@@H](CCCNC(=N)N)C(=O)N[C@@H](CO)C(=O)N[C@@H](CCSC)C(=O)N[C@H](C(=O)N[C@@H](CC(=O)O)C(N)=O)[C@@H](C)O)C(C)C` [Compound 35] (Palmitoyl-VMGYQKKLRSMTD-NH2): the activity at 1 µM on CXCR4 [1] (read-out: AUC (% of)) worked out at 31.7%; at CXCR4 [1] (read-out: Max (% of)) it was 49.3%; on CXCR4 [2] (read-out: AUC (% of)) it was 57.9%; at CXCR4 [2] (read-out: Max (% of)), 57%.
`CCCCCCCCCCCCCCCC(=O)N[C@@H](CCCCN)C(=O)N[C@@H](CCCCN)C(=O)N[C@@H](CC(C)C)C(=O)N[C@@H](CCCNC(=N)N)C(=O)N[C@@H](CO)C(=O)N[C@@H](CCSC)C(=O)N[C@H](C(=O)N[C@@H](CC(=O)O)C(=O)N[C@@H](CCCCN)C(=O)N[C@@H](Cc1ccc(O)cc1)C(N)=O)[C@@H](C)O` [Compound 46] (Palmitoyl-KKLRSMTDKY-NH2): the activity at 1 µM was 87.2% at CXCR4 [1] (read-out: AUC (% of)), 82.9% on CXCR4 [1] (read-out: Max (% of)), 69.7% on CXCR4 [2] (read-out: AUC (% of)) and 116% at CXCR4 [2] (read-out: Max (% of)).

(Values after patent US9096646B2, “CXCR4 receptor compounds” (priority 2008, dated 2015).)
